In ChEMBL document CHEMBL5291721, “A preclinical secondary pharmacology resource illuminates target-adverse drug reaction associations of marketed drugs” (Nat Commun, 2023):

Legend:
Adenosine receptor A3 = molecular target: T1, Adenosine receptor A3 (Homo sapiens, UniProt P0DMS8)
T1 sequence (P0DMS8 whole entry): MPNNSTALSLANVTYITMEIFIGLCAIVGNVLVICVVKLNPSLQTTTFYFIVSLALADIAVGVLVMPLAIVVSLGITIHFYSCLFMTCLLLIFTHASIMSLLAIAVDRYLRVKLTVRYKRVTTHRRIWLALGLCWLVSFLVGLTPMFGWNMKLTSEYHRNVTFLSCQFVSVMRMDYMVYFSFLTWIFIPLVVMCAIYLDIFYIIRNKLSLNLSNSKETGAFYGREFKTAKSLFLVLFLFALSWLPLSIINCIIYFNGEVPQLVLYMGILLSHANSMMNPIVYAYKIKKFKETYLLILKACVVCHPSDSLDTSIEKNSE

[1] = molecular target: T2, Alpha-1A adrenergic receptor (Homo sapiens, UniProt P35348); type: functional, cell-based
T2 sequence (P35348 whole entry): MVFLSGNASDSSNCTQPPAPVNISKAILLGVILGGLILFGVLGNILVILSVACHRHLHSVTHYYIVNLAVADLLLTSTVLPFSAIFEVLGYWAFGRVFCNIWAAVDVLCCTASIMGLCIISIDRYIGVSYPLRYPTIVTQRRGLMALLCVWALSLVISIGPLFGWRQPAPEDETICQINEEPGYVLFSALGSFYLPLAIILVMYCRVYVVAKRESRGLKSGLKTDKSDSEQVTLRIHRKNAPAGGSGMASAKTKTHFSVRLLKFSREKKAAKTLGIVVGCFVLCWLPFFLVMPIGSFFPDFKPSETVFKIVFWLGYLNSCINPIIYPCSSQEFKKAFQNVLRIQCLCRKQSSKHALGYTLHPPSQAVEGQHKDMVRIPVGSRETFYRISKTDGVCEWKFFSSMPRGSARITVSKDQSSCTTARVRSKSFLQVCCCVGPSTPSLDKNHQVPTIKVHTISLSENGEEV

Prothrombin = Prothrombin (Homo sapiens, UniProt P00734); type: functional
[2] = molecular target: T3, 5-hydroxytryptamine receptor 1A (Homo sapiens, UniProt P08908)
T3 sequence (P08908 whole entry): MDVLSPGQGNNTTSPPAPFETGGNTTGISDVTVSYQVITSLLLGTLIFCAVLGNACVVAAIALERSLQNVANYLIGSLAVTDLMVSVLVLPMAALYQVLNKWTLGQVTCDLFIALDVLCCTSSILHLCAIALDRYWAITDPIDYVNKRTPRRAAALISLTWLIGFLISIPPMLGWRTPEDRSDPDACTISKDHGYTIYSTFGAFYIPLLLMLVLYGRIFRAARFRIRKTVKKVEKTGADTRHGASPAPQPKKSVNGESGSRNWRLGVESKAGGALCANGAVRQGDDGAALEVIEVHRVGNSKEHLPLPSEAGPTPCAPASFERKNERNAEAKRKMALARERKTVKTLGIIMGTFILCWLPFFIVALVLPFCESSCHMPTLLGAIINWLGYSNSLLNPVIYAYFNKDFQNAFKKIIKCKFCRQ

[3] = molecular target: Vascular endothelial growth factor receptor 2 (Homo sapiens, UniProt P35968); type: functional
Sequence of Vascular endothelial growth factor receptor 2 (P35968 whole entry): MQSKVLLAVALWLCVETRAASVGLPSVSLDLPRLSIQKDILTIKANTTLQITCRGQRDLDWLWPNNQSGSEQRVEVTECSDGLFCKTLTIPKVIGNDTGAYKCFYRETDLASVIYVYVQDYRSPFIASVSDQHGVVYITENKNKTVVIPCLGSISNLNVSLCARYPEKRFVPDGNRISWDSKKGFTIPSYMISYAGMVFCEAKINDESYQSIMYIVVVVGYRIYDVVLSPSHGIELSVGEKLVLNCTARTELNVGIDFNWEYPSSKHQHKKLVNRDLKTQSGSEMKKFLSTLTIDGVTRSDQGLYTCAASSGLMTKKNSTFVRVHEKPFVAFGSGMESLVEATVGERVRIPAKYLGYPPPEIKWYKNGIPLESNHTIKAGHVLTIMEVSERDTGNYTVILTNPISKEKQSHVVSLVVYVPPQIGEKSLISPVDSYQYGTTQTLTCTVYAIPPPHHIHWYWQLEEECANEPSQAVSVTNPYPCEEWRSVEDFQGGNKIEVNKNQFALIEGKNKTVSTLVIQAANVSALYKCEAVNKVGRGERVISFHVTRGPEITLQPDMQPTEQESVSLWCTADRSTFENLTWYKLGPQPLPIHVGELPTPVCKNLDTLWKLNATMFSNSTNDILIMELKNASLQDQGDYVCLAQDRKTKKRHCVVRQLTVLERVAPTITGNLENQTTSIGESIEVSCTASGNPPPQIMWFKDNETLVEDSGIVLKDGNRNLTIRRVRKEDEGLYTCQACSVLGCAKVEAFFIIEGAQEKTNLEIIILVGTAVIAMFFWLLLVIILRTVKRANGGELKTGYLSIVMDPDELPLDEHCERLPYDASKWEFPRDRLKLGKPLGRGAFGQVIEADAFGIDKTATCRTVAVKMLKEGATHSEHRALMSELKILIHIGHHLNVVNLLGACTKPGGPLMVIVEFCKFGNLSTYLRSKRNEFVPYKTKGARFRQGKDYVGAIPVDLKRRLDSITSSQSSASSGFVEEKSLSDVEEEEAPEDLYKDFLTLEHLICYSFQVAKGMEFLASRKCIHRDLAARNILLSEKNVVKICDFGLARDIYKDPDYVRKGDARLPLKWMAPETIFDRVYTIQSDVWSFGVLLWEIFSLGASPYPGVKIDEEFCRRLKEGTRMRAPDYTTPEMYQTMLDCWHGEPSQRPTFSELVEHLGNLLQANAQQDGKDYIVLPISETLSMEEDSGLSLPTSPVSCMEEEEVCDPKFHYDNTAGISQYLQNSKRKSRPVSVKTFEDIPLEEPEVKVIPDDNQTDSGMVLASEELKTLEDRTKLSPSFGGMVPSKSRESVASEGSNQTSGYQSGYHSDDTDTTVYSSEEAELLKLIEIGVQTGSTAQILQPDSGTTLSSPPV

[4] = molecular target: T4, Amine oxidase [flavin-containing] A (Homo sapiens, UniProt P21397); type: functional
T4 sequence (P21397 whole entry): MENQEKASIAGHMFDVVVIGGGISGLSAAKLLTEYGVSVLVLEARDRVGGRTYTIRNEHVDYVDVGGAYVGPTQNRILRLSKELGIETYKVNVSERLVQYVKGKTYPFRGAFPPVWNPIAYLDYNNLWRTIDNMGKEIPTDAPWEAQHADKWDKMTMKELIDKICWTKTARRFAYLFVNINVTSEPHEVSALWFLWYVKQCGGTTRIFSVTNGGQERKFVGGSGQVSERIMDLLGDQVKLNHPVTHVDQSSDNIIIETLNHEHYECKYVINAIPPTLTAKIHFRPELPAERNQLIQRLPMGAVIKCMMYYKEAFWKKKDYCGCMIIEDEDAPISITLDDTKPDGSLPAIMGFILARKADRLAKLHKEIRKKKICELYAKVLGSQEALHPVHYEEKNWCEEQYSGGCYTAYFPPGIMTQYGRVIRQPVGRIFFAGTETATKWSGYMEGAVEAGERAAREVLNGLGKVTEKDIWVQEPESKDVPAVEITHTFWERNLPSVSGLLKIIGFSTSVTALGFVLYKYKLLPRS

Vasopressin V1a receptor = Vasopressin V1a receptor (Homo sapiens, UniProt P37288)
Sequence of Vasopressin V1a receptor (P37288 whole entry): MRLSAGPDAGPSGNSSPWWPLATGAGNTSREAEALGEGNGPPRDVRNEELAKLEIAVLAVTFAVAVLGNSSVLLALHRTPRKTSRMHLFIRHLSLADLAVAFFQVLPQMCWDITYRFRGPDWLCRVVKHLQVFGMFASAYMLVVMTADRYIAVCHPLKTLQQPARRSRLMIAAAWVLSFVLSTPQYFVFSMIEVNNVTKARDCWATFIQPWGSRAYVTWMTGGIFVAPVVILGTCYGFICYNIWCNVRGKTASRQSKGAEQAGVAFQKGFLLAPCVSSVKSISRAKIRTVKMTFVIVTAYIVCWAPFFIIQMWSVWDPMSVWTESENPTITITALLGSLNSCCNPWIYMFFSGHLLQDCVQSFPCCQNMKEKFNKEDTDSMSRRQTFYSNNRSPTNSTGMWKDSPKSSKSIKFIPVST

B2 bradykinin receptor = molecular target: T5, B2 bradykinin receptor (Homo sapiens, UniProt P30411)
T5 sequence (P30411 whole entry): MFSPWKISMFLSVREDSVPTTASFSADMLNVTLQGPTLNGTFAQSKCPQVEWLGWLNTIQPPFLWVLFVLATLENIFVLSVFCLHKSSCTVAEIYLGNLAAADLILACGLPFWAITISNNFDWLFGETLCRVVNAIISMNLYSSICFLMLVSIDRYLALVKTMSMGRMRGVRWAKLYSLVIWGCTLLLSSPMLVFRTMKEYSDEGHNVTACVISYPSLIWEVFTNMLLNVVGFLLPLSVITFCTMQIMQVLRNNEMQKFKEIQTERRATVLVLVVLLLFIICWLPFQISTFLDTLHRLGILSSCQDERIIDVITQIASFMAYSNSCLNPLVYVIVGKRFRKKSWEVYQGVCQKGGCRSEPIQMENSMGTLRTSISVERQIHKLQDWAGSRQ

[5] = molecular target: Glutamate receptor ionotropic, NMDA 1 (Rattus norvegicus, UniProt P35439)
[6] = molecular target: Sodium-dependent serotonin transporter (Homo sapiens, UniProt P31645)
Sequence of Sodium-dependent serotonin transporter (P31645 whole entry): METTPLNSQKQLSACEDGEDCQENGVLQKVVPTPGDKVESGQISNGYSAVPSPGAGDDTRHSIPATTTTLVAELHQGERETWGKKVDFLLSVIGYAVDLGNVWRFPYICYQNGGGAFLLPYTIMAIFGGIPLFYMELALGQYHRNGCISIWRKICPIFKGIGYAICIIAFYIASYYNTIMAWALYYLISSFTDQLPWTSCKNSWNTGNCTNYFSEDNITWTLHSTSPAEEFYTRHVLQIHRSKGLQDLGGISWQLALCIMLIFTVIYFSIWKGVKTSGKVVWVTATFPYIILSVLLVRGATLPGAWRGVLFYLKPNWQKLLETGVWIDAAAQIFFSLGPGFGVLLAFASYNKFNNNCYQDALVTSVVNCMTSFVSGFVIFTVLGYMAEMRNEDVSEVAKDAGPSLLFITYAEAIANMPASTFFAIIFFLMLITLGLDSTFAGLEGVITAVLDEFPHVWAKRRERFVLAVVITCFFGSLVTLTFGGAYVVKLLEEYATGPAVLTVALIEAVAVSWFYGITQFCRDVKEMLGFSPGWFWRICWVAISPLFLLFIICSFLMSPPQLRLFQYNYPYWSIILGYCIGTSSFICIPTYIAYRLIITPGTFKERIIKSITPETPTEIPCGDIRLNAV

[7] = molecular target: T6, Muscarinic acetylcholine receptor M2 (Homo sapiens, UniProt P08172); type: functional, cell-based
T6 sequence (P08172 whole entry): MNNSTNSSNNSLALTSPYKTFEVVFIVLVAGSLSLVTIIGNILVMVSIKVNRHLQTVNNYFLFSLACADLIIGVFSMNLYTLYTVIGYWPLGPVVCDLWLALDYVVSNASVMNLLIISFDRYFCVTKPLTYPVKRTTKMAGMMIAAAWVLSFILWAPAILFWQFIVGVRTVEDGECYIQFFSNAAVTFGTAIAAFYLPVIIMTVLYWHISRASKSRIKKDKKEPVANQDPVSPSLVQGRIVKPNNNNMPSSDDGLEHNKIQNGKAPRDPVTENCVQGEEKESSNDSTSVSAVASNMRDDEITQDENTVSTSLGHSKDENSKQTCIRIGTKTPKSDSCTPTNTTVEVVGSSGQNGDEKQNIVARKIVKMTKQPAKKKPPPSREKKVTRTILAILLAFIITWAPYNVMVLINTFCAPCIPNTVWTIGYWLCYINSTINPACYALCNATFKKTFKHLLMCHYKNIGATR
Note: assay procedure not described here.

Compound | AC50 (Adenosine receptor A3) [µM] | AC50 [1] [µM] | AC50 (Prothrombin) [µM] | AC50 [2] [µM] | AC50 [3] [µM] | AC50 [4] [µM] | AC50 (Vasopressin V1a receptor) [µM] | AC50 (B2 bradykinin receptor) [µM] | AC50 [5] [µM] | AC50 [6] [µM] | AC50 [7] [µM]
O=C1c2c(O)c(=O)ccn2N([C@@H]2c3ccccc3SCc3c2ccc(F)c3F)[C@@H]2COCCN12 [BALOXAVIR] | > 30 | > 30 | > 30 | > 30 | > 30 | > 30 | – | – | – | – | –
C(=N\NC1=NCCN1)/c1c2ccccc2c(/C=N/NC2=NCCN2)c2ccccc12 [BISANTRENE] | 2.01 | > 30 | > 30 | 1.65 | – | > 30 | – | – | – | – | –
COc1cc(Nc2c(C#N)cnc3cc(OCCCN4CCN(C)CC4)c(OC)cc23)c(Cl)cc1Cl [BOSUTINIB] | – | – | > 30 | 14.2 | – | > 30 | 4.7 | > 30 | > 10 | 11 | –
N[C@@H](C(=O)N[C@@H]1C(=O)N2C(C(=O)O)=C(Cl)CS[C@H]12)c1ccccc1 [CEFACLOR ANHYDROUS] | – | – | – | – | – | – | > 30 | > 30 | > 30 | > 30 | > 30
CCO/N=C(\C(=O)N[C@@H]1C(=O)N2C(C(=O)[O-])=C(Sc3nc(-c4cc[n+](C)cc4)cs3)CS[C@H]12)c1nsc(N)n1 [CEFTAROLINE] | > 30 | > 30 | > 30 | > 30 | > 30 | > 30 | – | – | – | – | –
Cc1cc(O)cc(C)c1Cl [CHLOROXYLENOL] | > 30 | – | > 30 | > 30 | > 30 | > 30 | – | – | – | – | –
C[N+](C)(C)CCCCCCCCCC[N+](C)(C)C [DECAMETHONIUM] | > 30 | > 30 | > 30 | > 30 | > 30 | > 30 | – | – | – | – | –
O=C1c2ccccc2C(=O)C1C(=O)C(c1ccccc1)c1ccccc1 [DIPHENADIONE] | 0.716 | 4.95 | > 30 | > 30 | > 30 | > 30 | – | – | – | – | –
COC(=O)[C@@H]1CC2=CC(=O)CC[C@]2(C)[C@@]23O[C@@H]2C[C@@]2(C)[C@@H](CC[C@@]24CCC(=O)O4)[C@H]13 [EPLERENONE] | – | – | – | – | – | – | > 30 | > 30 | > 10 | > 30 | > 30
CCOC(=O)c1ccc(O)cc1 [ETHYLPARABEN] | > 30 | > 30 | > 30 | > 30 | > 30 | > 30 | – | – | – | – | –
O=C1[C@H](CC[C@H](O)c2ccc(F)cc2)[C@@H](c2ccc(O)cc2)N1c1ccc(F)cc1 [EZETIMIBE] | 6.34 | 9.94 | > 30 | > 30 | > 30 | > 30 | – | – | – | – | –
O=C(COc1ccc(Cl)cc1)N1CCN(Cc2ccc3c(c2)OCO3)CC1 [FIPEXIDE] | > 30 | > 30 | > 30 | > 30 | > 30 | > 30 | – | – | – | – | –
Cc1c(-c2ccccc2)oc2c(C(=O)OCCN3CCCCC3)cccc2c1=O [FLAVOXATE] | 5.29 | > 30 | > 30 | 3.11 | > 30 | > 30 | – | – | – | – | –
C[C@@H]1O[C@@H]1P(=O)(O)O [FOSFOMYCIN] | – | – | – | – | – | – | > 10 | > 10 | > 10 | > 10 | > 10
COc1ccc2c(c1)C(=O)N(CCc1ccc(S(=O)(=O)NC(=O)NC3CCCCC3)cc1)C(=O)C2(C)C [GLIQUIDONE] | – | – | – | – | – | – | > 30 | > 30 | > 30 | > 30 | > 30
CN1C(=O)CC(C)(c2ccccc2)C1=O (centres undefined) [METHSUXIMIDE] | – | – | – | – | – | – | > 10 | > 10 | > 10 | > 10 | > 10
OCCN1CCN(CCCN2c3ccccc3C=Cc3ccccc32)CC1 [OPIPRAMOL] | – | > 30 | > 30 | 9.25 | – | > 30 | > 30 | > 30 | > 30 | > 30 | > 30
O=C(NC[C@H]1CN(c2ccc(N3CCOCC3=O)cc2)C(=O)O1)c1ccc(Cl)s1 [RIVAROXABAN] | – | > 30 | – | > 30 | – | > 30 | – | – | > 30 | > 30 | > 30
CC(C(=O)O)c1ccc(C(=O)c2cccs2)cc1 (centres undefined) [SUPROFEN] | – | – | – | – | – | – | > 10 | > 10 | > 10 | > 10 | > 10
CS(=O)(=O)c1ccc([C@@H](O)[C@@H](CO)NC(=O)C(Cl)Cl)cc1 [THIAMPHENICOL] | > 30 | > 30 | > 30 | > 30 | – | > 30 | > 30 | > 30 | > 30 | – | > 30
Cc1ccc(C(=O)c2cc(O)c(O)c([N+](=O)[O-])c2)cc1 [TOLCAPONE] | – | – | – | – | – | – | > 10 | > 10 | > 10 | > 30 | > 10
CCCS(=O)(=O)Nc1ccc(F)c(C(=O)c2c[nH]c3ncc(-c4ccc(Cl)cc4)cc23)c1F [VEMURAFENIB] | – | – | – | – | – | – | > 30 | > 30 | > 30 | > 30 | > 30
O=C(CCCCCCC(=O)Nc1ccccc1)NO [VORINOSTAT] | – | – | – | – | – | – | > 30 | > 30 | > 30 | > 30 | > 30
